Patent US11091428B2 (HAPLOGEN GMBH, priority 2016, dated 2021)
Read-outs that look alike come from different tables or passages of the source.

Key:
[1] = test system: picornaviruses (CVB1, HRV-A2, HRV-A23, EV-68); test: Anti-picornavirus cytopathic effect (CPE) reduction assay on HeLa H1 cells; type: cell-based; settings: Enterovirus B, HeLa H1 cells, 48 h, category from averaging the EC50 values from four picornaviruses (CVB1, HRV-A2, HRV-A23, EV68), read-out: EC50 values of the compounds determined in the anti-picornavirus assay
Outline: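 HeLa H1 cells pre-treated 2 h with serially diluted compound in DMEM/2% FBS, then infected at an MOI giving full CPE in 2 days. After 48 h at 37° C, viability read by CellTiterBlue fluorescence (ex 560/em 590 nm), normalised to infected and uninfected vehicle controls; EC50 by non-linear regression, category from mean of four viruses.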

PLA2G16 = molecular target: T1, PLA2G16 (Homo sapiens, UniProt P53816); test: Enzyme activity assay for PLA2G16 (Red/Green BODIPY PC-A2 fluorescence); type: biochemical; settings: His-tagged PLA2G16, 4 min pre-incubation, 2 nM to 50 μM; read-out: IC50 values of the compounds determined in the enzyme activity assay for PLA2G16
T1 construct: Hexa-His (N); made in house; host or cells: E. coli BL21(DE3)
T1 sequence (P53816 1-162): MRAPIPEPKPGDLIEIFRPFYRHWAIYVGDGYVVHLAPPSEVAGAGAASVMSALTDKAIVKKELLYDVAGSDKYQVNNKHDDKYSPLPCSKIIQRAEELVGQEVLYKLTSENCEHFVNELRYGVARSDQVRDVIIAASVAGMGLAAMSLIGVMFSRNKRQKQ
Outline: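 N-His-tagged human PLA2G16 from E. coli, Ni-NTA purified. Pre-incubated 4 min with compound (2 nM–50 μM final) in pH 8.5 Tris/NaCl buffer with 5 mM glutathione, then BODIPY PC-A2 in DOPC/DOPG/cholesterol vesicles added. Fluorescence (ex 480/em 530 nm) increase over 10 min taken as activity; IC50 by non-linear regression.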

SMILES	EC50 ([1]; HeLa H1, 48 h) [nM]	IC50 (PLA2G16) [nM]	EC50 ([1]; CVB1|EV68|HRVA2|HRVA23, HeLa H1, 48 h) [nM]
O=CN(Cc1ccccc1)[C@@H](Cc1cn(C(c2ccccc2)(c2ccccc2)c2ccccc2)cn1)C(=O)C(=O)NCC1CC1 [FP 117, (3S)-3-(N-Benzylformamido)-N-(cyclopropylmethyl)-2-oxo-4-[1-(triphenylmethyl)-1H-imidazol-4-yl]butanamide]	< 1000	< 1000	–
COC(=O)N(CC1CCOCC1)C(C)C(=O)C(=O)NCC(C)C (stereo not shown) [FP 152, Methyl N-{1-[(2-methylpropyl)carbamoyl]-1-oxopropan-2-yl}-N-[(oxan-4-yl)methyl]carbamate]	> 10000	1000 to 10000	–
CC(C)SCCNC(=O)C(=O)C1CCC(=O)N1Cc1ccc(Cl)cc1 (stereo not shown) [FP 257, 2-{1-[(4-Chlorophenyl)methyl]-5-oxopyrrolidin-2-yl}-2-oxo-N-[2-(propan-2-ylsulfanyl)-ethyl]acetamide]	< 1000	< 1000	–
CC(C(=O)C(=O)NCC1CCCCC1)N(C=O)c1cc[nH]c(=O)c1 (stereo not shown) [FP 192, N-(Cyclohexylmethyl)-2-oxo-3-[N-(2-oxo-1,2-dihydropyridin-4-yl)formamido]butanamide]	> 10000	< 1000	–
O=C(N[C@@H]1C[C@@H]1F)C(=O)[C@H]1CCC(=O)N1Cc1ccccc1 [FP 267, 2-[(2R)-1-Benzyl-5-oxopyrrolidin-2-yl]-N-[(1R,2S)-2-fluorocyclopropyl]-2-oxoacetamide]	< 1000	< 1000	–
COc1ccccc1N(C(=O)C(C)C)C(C)C(=O)C(=O)NCc1cccc(Cl)c1 (stereo not shown) [FP 142, N-[(3-Chlorophenyl)methyl]-3-[N-(2-methoxyphenyl)-2-methylpropanamido]-2-oxobutanamide]	1000 to 10000	< 1000	–
O=C(NCCCc1nccs1)C(=O)C1CCC(=O)N1Cc1ccccc1 (stereo not shown) [FP 229, 2-(1-Benzyl-5-oxopyrrolidin-2-yl)-2-oxo-N-[3-(1,3-thiazol-2-yl)propyl]acetamide]	< 1000	< 1000	–
COc1ccccc1N(C=O)C(C)C(=O)C(=O)NCC1CC1 (stereo not shown) [FP 105, N-(Cyclopropylmethyl)-3-[N-(2-methoxyphenyl)formamido]-2-oxobutanamide]	1000 to 10000	< 1000	–
CC(C(=O)C(=O)NCC1CCCCC1)N(C(=O)CNS(C)(=O)=O)C1CCCCC1 (stereo not shown) [FP 162, 3-(N-Cyclohexyl-2-methanesulfonamidoacetamido)-N-(cyclohexylmethyl)-2-oxobutanamide]	> 10000	10000 to 50000	–
COc1ccccc1N(C=O)C(C)C(=O)C(=O)NCc1c(C)cccc1C (stereo not shown) [FP 99, N-[(2,6-Dimethylphenyl)methyl]-3-[N-(2-methoxyphenyl)formamido]-2-oxobutanamide]	1000 to 10000	< 1000	–
Cc1ccccc1S(=O)(=O)NC(C)C(=O)C(=O)NCC1CC1 (stereo not shown) [FP 190, N-(Cyclopropylmethyl)-3-(2-methylbenzenesulfonamido)-2-oxobutanamide]	1000 to 10000	< 1000	–
CC(NC(=O)c1ccccc1)C(=O)C(=O)NCC1CC1 (stereo not shown) [FP 178, N-(Cyclopropylmethyl)-2-oxo-3-(phenylformamido)butanamide]	1000 to 10000	< 1000	–
CC(C)CNC(=O)C(=O)C(C)N(C=O)CC(F)(F)F (stereo not shown) [FP 46, N-(2-Methylpropyl)-2-oxo-3-[N-(2,2,2-trifluoroethyl)formamido]butanamide]	1000 to 10000	< 1000	–
CC(C)[C@H]1CC(=O)N(Cc2ccccc2)[C@@H]1C(=O)C(=O)NC1CC1 (racemic) [FP 342, 2-[(2S,3R)-1-Benzyl-5-oxo-3-(propan-2-yl)pyrrolidin-2-yl]-N-cyclopropyl-2-oxoacetamide and 2-[(2R,3S)-1-benzyl-5-oxo-3-(propan-2-yl)pyrrolidin-2-yl]-N-cyclopropyl-2-oxoacetamide]	< 1000	< 1000	–
Cc1noc(CCNC(=O)C(=O)[C@H]2CCC(=O)N2Cc2ccccc2)n1 [FP 293, 2-[(2R)-1-Benzyl-5-oxopyrrolidin-2-yl]-N-[2-(3-methyl-1,2,4-oxadiazol-5-yl)ethyl]-2-oxoacetamide]	1000 to 10000	< 1000	–
O=C(NC1CC1)C(=O)[C@H]1CCC(=O)N1Cc1ccccc1	–	< 1000	< 1000
COc1ccc(F)cc1N(C=O)C(C)C(=O)C(=O)NCc1cccc(Cl)c1 (stereo not shown) [FP 7, N-[(3-Chlorophenyl)methyl]-3-[N-(5-fluoro-2-methoxyphenyl)formamido]-2-oxobutanamide]	< 1000	< 1000	–
CC(NC(=O)Cc1ccccc1)C(=O)C(=O)NCC1CC1 (stereo not shown) [FP 167, N-(Cyclopropylmethyl)-2-oxo-3-(2-phenylacetamido)butanamide]	> 10000	< 1000	–

SMILES	EC50 ([1]; HeLa H1, 48 h) [nM]	IC50 (PLA2G16) [nM]	EC50 ([1]; CVB1|EV68|HRVA2|HRVA23, HeLa H1, 48 h) [nM]
Cc1ccncc1C(=O)NC(C)C(=O)C(=O)NCC1CCCCC1 (stereo not shown) [FP 209, N-(Cyclohexylmethyl)-3-[(4-methylpyridin-3-yl)formamido]-2-oxobutanamide]	1000 to 10000	< 1000	–
COc1cc(F)ccc1N(C=O)C(C)C(=O)C(=O)NCc1cccc(Cl)c1 (stereo not shown) [FP 8, N-[(3-Chlorophenyl)methyl]-3-[N-(4-fluoro-2-methoxyphenyl)formamido]-2-oxobutanamide]	< 1000	< 1000	–
CC(C(=O)C(=O)NCC1CCCCC1)N(C=O)CC1CCOCC1 (stereo not shown) [FP 49, N-(Cyclohexylmethyl)-3-{N-[(oxan-4-yl)methyl]formamido}-2-oxobutanamide]	< 1000	< 1000	–
CC(NC(=O)c1ccncc1)C(=O)C(=O)NCC1CCCCC1 (stereo not shown) [FP 205, N-(Cyclohexylmethyl)-2-oxo-3-[(pyridin-4-yl)formamido]butanamide]	1000 to 10000	< 1000	–
O=C(NCC(F)F)C(=O)[C@H]1CCC(=O)N1Cc1ccccc1 [FP 266, 2-[(2R)-1-Benzyl-5-oxopyrrolidin-2-yl]-N-(2,2-difluoroethyl)-2-oxoacetamide]	< 1000	< 1000	–
Cc1nc(C)n(CCCNC(=O)C(=O)C2CCC(=O)N2Cc2ccccc2)n1 (stereo not shown) [FP 231, 2-(1-Benzyl-5-oxopyrrolidin-2-yl)-N-[3-(3,5-dimethyl-1H-1,2,4-triazol-1-yl)propyl]-2-oxoacetamide]	> 10000	< 1000	–
O=C(NC1CC1)C(=O)C1CCC(=O)N1CC1CCCC1 (stereo not shown) [FP 279, 2-[1-(Cyclopentylmethyl)-5-oxopyrrolidin-2-yl]-N-cyclopropyl-2-oxoacetamide]	1000 to 10000	< 1000	–
CC(NS(=O)(=O)c1ccccc1Cl)C(=O)C(=O)NCC1CC1 (stereo not shown) [FP 191, 3-(2-Chlorobenzenesulfonamido)-N-(cyclopropylmethyl)-2-oxobutanamide]	1000 to 10000	< 1000	–
CC(C(=O)C(=O)NCC1CC1)N(C=O)Cc1ccccc1 (stereo not shown) [FP 37, 3-(N-Benzylformamido)-N-(cyclopropyylmethyl)-2-oxobutanamide]	< 1000	< 1000	–
CC(OCC1CCOCC1)C(=O)C(=O)NCC1CC1 (stereo not shown) [FP 121, N-(Cyclopropylmethyl)-3-[(oxan-4-yl)methoxy]-2-oxobutanamide]	1000 to 10000	< 1000	–
CC(C)NC(=O)[C@H]1C[C@H](NC(=O)C(=O)[C@H]2CCC(=O)N2Cc2ccccc2)C1 [FP 306, (1 r,3r)-3-{2-[(2R)-1-Benzyl-5-oxopyrrolidin-2-yl]-2-oxoacetamido}-N-(propan-2-yl)cyclobutane-1-carboxamide]	1000 to 10000	< 1000	–
COc1ccc(CNC(=O)C(=O)C(C)N(C=O)c2ccccc2OC)cc1 (stereo not shown) [FP 92, 3-[N-(2-Methoxyphenyl)formamido]-N-[(4-methoxyphenyl)methyl]-2-oxobutanamide]	1000 to 10000	< 1000	–
Cc1ccc(CN2C(=O)CCC2C(=O)C(=O)NC2CC2)cc1 (stereo not shown) [FP 270, N-Cyclopropyl-2-{1-[(4-methylphenyl)methyl]-5-oxopyrrolidin-2-yl}-2-oxoacetamide]	< 1000	< 1000	–
O=C(NC1CCCC1)C(=O)C1CCC(=O)N1CC1CC1 (stereo not shown) [FP 254, N-Cyclopentyl-2-[1-(cyclopropylmethyl)-5-oxopyrrolidin-2-yl]-2-oxoacetamide]	1000 to 10000	< 1000	–
C[C@@H]1CC(=O)N(Cc2ccccc2)[C@H]1C(=O)C(=O)NCC1CC1 (single isomer, unassigned) [FP 336]	< 1000	< 1000	–
C[C@H]1CC(=O)N(Cc2ccccc2)[C@@H]1C(=O)C(=O)NCC1CC1 (single isomer, unassigned) [FP 334]	1000 to 10000	< 1000	–
CC(C)C(=O)N(C)CCNC(=O)C(=O)[C@H]1CCC(=O)N1Cc1ccccc1 [FP 333, N-(2-{2-[(2R)-1-Benzyl-5-oxopyrrolidin-2-yl]-2-oxoacetamido}ethyl)-N,2-dimethyl-propanamide]	1000 to 10000	< 1000	–
